In US20150272939A1, “Identification of Small Molecule Inhibitors of Jumonji AT-Rich Interactive Domain 1A (JARID1A) and 1B (JARID1B) Histone Demethylase” (Yale University, priority 2012, published 2015):
Where a name gives a salt, the structure may show the parent alone. Read-outs that look alike come from different tables or passages of the source. Each block holds one compound with its values, some of them ahead of it.

Molecular target: T1, JARID1B (Homo sapiens, UniProt Q9UGL1)
T1 construct: The FLAG tagged full length JARID1B enzyme was expressed in Sf21 insect cells using FLAG-JARID1B baculoviruses; FLAG (N); made in house; host or cells: Sf21 insect cells (baculovirus)
T1 sequence (Q9UGL1 whole entry): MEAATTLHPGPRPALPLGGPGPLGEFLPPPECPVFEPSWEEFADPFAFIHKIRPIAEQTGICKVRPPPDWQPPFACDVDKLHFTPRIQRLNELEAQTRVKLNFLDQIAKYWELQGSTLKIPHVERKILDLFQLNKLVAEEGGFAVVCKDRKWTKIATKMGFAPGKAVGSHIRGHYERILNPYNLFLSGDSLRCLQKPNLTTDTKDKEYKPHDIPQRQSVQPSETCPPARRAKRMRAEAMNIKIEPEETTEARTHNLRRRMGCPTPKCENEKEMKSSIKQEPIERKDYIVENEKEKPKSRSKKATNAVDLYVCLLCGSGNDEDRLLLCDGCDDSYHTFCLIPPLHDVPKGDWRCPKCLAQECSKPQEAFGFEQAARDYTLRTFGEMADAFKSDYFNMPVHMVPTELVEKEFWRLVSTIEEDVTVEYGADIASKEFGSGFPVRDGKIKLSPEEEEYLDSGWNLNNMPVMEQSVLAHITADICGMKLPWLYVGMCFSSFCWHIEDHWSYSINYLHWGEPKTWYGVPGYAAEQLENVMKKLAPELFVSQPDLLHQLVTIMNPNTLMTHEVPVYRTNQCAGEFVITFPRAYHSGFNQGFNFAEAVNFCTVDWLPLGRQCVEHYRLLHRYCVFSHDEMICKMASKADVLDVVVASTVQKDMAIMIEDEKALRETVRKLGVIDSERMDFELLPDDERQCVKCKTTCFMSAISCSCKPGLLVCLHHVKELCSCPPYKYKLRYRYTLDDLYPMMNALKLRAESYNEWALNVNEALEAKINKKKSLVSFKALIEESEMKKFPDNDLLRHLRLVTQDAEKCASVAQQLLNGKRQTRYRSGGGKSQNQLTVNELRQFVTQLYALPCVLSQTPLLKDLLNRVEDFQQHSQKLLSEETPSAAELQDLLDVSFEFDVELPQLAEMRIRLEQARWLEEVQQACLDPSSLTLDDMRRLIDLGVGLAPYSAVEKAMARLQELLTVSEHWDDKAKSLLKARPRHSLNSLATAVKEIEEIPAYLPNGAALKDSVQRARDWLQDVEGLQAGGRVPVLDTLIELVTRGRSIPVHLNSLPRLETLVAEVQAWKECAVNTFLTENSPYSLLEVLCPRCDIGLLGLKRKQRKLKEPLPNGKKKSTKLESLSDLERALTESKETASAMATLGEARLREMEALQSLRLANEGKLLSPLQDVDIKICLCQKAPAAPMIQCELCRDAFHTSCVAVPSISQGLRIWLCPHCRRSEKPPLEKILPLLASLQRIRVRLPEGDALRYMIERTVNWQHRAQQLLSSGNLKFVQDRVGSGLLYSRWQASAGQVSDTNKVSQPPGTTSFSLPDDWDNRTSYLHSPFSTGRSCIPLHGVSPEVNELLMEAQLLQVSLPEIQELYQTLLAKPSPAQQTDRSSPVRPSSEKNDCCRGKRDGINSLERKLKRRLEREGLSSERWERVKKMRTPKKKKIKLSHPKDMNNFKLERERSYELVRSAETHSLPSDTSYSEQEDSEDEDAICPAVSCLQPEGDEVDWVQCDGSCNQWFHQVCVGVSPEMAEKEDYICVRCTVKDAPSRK
Test: FLAG-JARID1B histone demethylase assay with AlphaScreen detection (HTS and dose response);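 note: FLAG-tagged JARID1B at 4 nM acting on a biotinylated H3K4me3 peptide, demethylation read by AlphaScreen luminescence, with hits checked against bio-H3K4me2 without enzyme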;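 for Assay Signal (percent): compound tested at 20 µM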;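 for Assay − Artifact Signal (percent): compound tested at 20 µM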
Type: biochemical
Conditions: for inhibition at 20 µM: read-out: Inhibitory effect (percent); for Validation result of HTS active: effect of the compound in the JARID1B AlphaScreen demethylase assay / Assay Signal (percent): validation of HTS actives; for Validation result of HTS active: effect of the compound in the JARID1B AlphaScreen demethylase assay: total signal before subtraction of artifact signal; for Assay − Artifact Signal (percent): assay signal minus artifact signal; for Assay Signal (percent): effect of compound in JARID1B AlphaScreen assay

[1] = high-throughput screen, compound 20 μM, standard demethylase conditions (10 μM α-KG, 50 μM Fe (II))
[2] = dose response at 15 μM (low) Fe (II), read-out: IC50 (μM) low Fe (II)
[3] = dose response at 50 μM (high) Fe (II), read-out: IC50 (μM) high Fe (II)
[4] = high-throughput screen, compound 20 μM, IDs marked *: additional hits under reaction condition with 1 mM α-KG

inhibition at 20 µM [1]: 64.4%
Validation result of HTS active: effect of the compound in the JARID1B AlphaScreen demethylase assay: −3.96
Compound: Cc1cc(/C=C/c2ccc3cc(N(C)C)ccc3[n+]2C)c(C)n1-c1ccccc1 [YU034547, PYRVINIUM PAMOATE, reference compound]

inhibition at 20 µM [1]: 98.8%
Compound: O=c1c2cc(O)c(O)cc2oc2cc(O)c([C@@H]3O[C@H](CO)[C@@H](O)[C@H](O)[C@H]3O)c(O)c12 [YU155356, MANGIFERIN, reference compound]

Compound: CC(C)(O)[C@@H]1[C@H]2OC(=O)[C@@H]1[C@]1(O)C[C@H]3O[C@]34C(=O)O[C@H]2[C@]14C [YU033619, PICROTIN, reference compound]
inhibition at 20 µM: 46.9%
Validation result of HTS active: effect of the compound in the JARID1B AlphaScreen demethylase assay: −12.66

Compound: TYROTHRICIN [YU034048, reference compound]
Inhibitory effect (percent) [1]: 68.66%

Compound: Cl.Oc1cc2c(cc1O)[C@H]1c3ccccc3CN[C@@H]1CC2 [YU221065, Benzo[a]phenanthridine-10,11-diol, 5,6,6a,7,8,12b-hexahydro-, trans-, reference compound]
Assay − Artifact Signal (percent): 55.73%
inhibition at 20 µM [1]: 49.1%
Assay Signal (percent): 59.95%

inhibition at 20 µM [1]: 61.5%
Compound: Cc1noc2c1C(c1ccc(O)c(O)c1)C1=C(CCCC1=O)N2 (stereo not drawn) [YU185529]

Inhibitory effect (percent) [1]: 98.42%
Compound: O=C(O[C@@H]1Cc2c(O)cc(O)cc2O[C@@H]1c1cc(O)c(O)c(O)c1)c1cc(O)c(O)c(O)c1 [YU155090, EPIGALLOCATECHIN-3- MONOGALLATE, reference compound]

inhibition at 20 µM [1]: 89%
Compound: O=c1c(O)c(-c2ccc(O)c(O)c2)oc2c(O[C@@H]3O[C@H](CO)[C@@H](O)[C@H](O)[C@H]3O)c(O)cc(O)c12 [YU155353, GOSSYPIN, reference compound]

IC50 (Fe (II) concentration not stated, read-out: IC50 against JARID1B): ~6 µM
IC50 [2]: 7.63 µM
IC50 [3]: 5.17 µM
Compound: O=c1c2ccccc2[se]n1-c1ccccc1 [Ebselen, ebselen, reference compound]

Compound: O=C1c2c(O)ccc(O)c2C(=O)c2c(NCCNCCO)ccc(NCCNCCO)c21 [YU034420, MITOXANTHRONE HYDROCHLORIDE, reference compound]
Assay − Artifact Signal (percent): 10.55%
inhibition at 20 µM [1]: 101%
Assay Signal (percent): 99.87%

inhibition at 20 µM [1]: 49.6%
Compound: Cn1c(=O)n(C)c2cc(S(=O)(=O)NNc3ccccc3)ccc21 [YU152899]

IC50 [2]: 1.71 µM
IC50 [3]: 2.88 µM
Compound: O=C(O)/C=C/c1ccc(O)c(O)c1 [Caffeic acid, reference compound]

Compound: O=c1ccc2cc(O)c(O)cc2o1 [Esculetin, esculetin, reference compound]
IC50 [2]: 2.57 µM
IC50 [3]: 4.6 µM

inhibition at 20 µM [4]: 56.5%
inhibition at 20 µM [1]: 41.4%
Compound: O=c1c2ccccc2[se]n1-c1ccccc1 [YU034226, EBSELEN, reference compound]

inhibition at 20 µM [1]: 44.6%
Compound: O=C(Nc1ccc(N2Cc3ccccc3OC(c3ccccc3)C2)c(C(=O)O)c1)c1ccccc1F (stereo not drawn) [YU208215]

Compound: COc1cccc2c1C(=O)c1c(O)c3c(c(O)c1C2=O)C[C@@](O)(C(C)=O)C[C@@H]3O[C@H]1C[C@H](N)[C@H](O)[C@H](C)O1 [YU155188, DAUNORUBICIN, reference compound]
inhibition at 20 µM [1]: 74.7%

inhibition at 20 µM [4]: 99.2%
Validation result of HTS active: effect of the compound in the JARID1B AlphaScreen demethylase assay: −5.13
Compound: c1ccc2c(c1)CCCC2C1=NCCN1 (stereo not drawn) [YU034020, TETRAHYDROZOLINE HYDROCHLORIDE, reference compound]

inhibition at 20 µM [1]: 54.7%
Compound: Cc1cc(C)nc(N(C#N)C(=S)N(C)C)n1 [YU145655]

Inhibitory effect (percent) [1]: 105.46%
Compound: O=C(OC[C@H]1O[C@@H](OC(=O)c2cc(O)c(O)c(OC(=O)c3cc(O)c(O)c(O)c3)c2)[C@H](OC(=O)c2cc(O)c(O)c(OC(=O)c3cc(O)c(O)c(O)c3)c2)[C@@H](OC(=O)c2cc(O)c(O)c(OC(=O)c3cc(O)c(O)c(O)c3)c2)[C@@H]1OC(=O)c1cc(O)c(O)c(OC(=O)c2cc(O)c(O)c(O)c2)c1)c1cc(O)c(O)c(OC(=O)c2cc(O)c(O)c(O)c2)c1 (stereo in doubt) [YU155507, TANNIC ACID, reference compound]

IC50 [2]: 1.8 µM
IC50 [3]: 1.31 µM
Compound: Cn1c(/C(C#N)=C/c2ccncc2)nc2ccccc21 [ChemBridge 6339039]
